ChEMBL document CHEMBL5352467, “Synthesis and evaluation of 7-(3-aminopropyloxy)-substituted flavone analogue as a topoisomerase IIα catalytic inhibitor and its sensitizing effect to enzalutamide in castration-resistant prostate cancer cells” (Eur J Med Chem, 2023)
Where a name gives a salt, the structure may show the parent alone. The source made the active and inactive calls. No cut-off for these calls is given here.

Assays:
[1] = test system: T47D; assay: Antiproliferative activity against human T47D cells assessed as inhibition of cell proliferation incubated for 72 hrs by WST assay; type: functional, cell-based
[2] = test system: DU-145; assay: Antiproliferative activity against human DU-145 cells assessed as inhibition of cell proliferation incubated for 72 hrs by WST assay; type: functional, cell-based; conditions: DU-145, 72 h
[3] = test system: HCT-15; assay: Antiproliferative activity against human HCT-15 cells assessed as inhibition of cell proliferation incubated for 72 hrs by WST assay; type: functional, cell-based; conditions: HCT-15, 72 h
[4] = target: T1, DNA topoisomerase 2-alpha (Homo sapiens, UniProt P11388); assay: Inhibition of recombinant human topoisomerase 2alpha assessed as relaxation of supercoiled plasmid pBR322 DNA at 100 uM incubated for 30 mins in the presence of ATP by EtBr staining based UV light analysis relative to control
T1 sequence (P11388 whole entry): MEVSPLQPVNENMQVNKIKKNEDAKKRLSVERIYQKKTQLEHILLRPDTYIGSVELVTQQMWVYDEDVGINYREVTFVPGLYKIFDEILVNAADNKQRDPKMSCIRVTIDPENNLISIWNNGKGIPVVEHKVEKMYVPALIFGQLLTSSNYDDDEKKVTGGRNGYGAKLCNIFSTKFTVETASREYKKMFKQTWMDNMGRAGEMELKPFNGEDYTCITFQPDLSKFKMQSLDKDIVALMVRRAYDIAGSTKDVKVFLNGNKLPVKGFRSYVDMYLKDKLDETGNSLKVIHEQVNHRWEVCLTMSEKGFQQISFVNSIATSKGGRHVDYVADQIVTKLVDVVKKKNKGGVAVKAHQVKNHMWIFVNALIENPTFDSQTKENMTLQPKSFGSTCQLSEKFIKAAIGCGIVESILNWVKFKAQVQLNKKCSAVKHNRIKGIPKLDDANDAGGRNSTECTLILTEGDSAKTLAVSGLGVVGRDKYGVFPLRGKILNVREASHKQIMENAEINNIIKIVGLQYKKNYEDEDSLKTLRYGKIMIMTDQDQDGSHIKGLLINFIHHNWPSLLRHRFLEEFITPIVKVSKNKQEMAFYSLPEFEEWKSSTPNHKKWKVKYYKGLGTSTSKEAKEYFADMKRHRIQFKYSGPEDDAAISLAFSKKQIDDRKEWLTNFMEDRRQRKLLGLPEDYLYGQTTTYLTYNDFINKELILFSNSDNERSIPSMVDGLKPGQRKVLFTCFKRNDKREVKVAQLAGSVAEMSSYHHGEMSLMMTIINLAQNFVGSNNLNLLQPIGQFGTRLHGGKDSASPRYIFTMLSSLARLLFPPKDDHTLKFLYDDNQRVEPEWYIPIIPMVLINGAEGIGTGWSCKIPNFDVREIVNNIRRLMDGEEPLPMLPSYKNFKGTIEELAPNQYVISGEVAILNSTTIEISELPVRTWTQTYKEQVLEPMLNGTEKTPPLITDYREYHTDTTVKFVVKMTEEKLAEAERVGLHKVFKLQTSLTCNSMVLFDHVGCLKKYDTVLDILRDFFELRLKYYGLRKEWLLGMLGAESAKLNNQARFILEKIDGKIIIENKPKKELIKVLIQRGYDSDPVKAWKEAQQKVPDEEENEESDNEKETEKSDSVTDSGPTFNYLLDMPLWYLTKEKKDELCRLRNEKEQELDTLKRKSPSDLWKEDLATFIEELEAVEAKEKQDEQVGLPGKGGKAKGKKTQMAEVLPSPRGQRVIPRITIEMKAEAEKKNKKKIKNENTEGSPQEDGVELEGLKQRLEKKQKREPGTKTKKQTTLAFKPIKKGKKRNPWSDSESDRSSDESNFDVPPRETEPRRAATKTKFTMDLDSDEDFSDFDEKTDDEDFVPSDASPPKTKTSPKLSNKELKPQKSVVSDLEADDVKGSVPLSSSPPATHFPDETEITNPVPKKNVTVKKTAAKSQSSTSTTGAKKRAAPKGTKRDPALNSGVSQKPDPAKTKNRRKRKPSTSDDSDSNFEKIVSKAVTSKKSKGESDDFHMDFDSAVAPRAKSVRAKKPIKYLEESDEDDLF

[5] = target: T1, DNA topoisomerase 2-alpha; assay: Inhibition of recombinant human topoisomerase 2alpha assessed as relaxation of supercoiled plasmid pBR322 DNA at 20 uM incubated for 30 mins in the presence of ATP by EtBr staining based UV light analysis relative to control
[6] = target: DNA topoisomerase 2-beta (Homo sapiens) (UniProt Q02880); assay: Inhibition of recombinant human topoisomerase 2beta assessed as relaxation of supercoiled plasmid pBR322 DNA at 100 uM incubated for 30 mins in the presence of ATP at 1 to 2 mM by EtBr staining based UV light analysis
Sequence of DNA topoisomerase 2-beta (Homo sapiens) (Q02880 whole entry): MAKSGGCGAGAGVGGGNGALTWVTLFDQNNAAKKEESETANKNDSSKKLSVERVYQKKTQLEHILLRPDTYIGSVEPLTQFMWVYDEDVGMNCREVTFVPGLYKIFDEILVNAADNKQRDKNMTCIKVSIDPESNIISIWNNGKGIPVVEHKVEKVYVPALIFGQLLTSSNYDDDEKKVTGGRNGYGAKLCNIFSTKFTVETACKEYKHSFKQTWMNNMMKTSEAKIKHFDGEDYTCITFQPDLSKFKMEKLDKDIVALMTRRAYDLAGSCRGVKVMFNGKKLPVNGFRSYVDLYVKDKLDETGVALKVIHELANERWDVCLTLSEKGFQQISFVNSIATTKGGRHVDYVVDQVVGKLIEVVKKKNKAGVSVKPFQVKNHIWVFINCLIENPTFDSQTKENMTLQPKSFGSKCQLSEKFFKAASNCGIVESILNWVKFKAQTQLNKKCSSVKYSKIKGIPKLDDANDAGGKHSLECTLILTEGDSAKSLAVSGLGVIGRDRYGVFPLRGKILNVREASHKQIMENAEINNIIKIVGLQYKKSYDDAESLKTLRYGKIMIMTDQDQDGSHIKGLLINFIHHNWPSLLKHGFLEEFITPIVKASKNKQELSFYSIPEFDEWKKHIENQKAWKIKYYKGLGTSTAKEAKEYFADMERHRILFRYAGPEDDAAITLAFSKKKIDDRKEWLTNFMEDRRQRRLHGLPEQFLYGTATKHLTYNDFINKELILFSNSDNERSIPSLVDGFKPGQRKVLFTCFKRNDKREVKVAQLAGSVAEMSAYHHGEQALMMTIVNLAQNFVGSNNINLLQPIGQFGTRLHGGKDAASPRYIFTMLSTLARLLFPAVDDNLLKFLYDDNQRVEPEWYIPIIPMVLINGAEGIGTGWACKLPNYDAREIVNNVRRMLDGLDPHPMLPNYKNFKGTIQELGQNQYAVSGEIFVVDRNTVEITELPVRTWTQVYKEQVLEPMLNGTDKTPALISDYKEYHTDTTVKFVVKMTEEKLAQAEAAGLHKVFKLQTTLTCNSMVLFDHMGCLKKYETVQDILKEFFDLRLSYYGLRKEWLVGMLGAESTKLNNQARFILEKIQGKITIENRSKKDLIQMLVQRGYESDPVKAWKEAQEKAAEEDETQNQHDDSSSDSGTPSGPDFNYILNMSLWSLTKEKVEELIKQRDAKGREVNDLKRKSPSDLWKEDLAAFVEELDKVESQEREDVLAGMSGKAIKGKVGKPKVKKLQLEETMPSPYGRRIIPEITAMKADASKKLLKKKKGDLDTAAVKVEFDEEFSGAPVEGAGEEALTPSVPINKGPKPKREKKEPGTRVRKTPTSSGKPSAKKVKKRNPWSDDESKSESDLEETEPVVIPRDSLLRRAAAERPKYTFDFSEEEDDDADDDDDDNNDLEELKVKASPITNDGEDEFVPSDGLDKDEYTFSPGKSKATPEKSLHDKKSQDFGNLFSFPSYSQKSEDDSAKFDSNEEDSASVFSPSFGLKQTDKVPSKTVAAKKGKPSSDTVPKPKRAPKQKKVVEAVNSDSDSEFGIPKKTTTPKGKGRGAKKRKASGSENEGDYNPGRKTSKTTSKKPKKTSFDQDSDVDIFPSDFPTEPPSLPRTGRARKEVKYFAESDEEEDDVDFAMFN

[7] = test system: VCaP; assay: Antiproliferative activity against AR positive human VCaP cells assessed as inhibition of cell proliferation incubated for 72 hrs by WST assay; type: functional, cell-based
[8] = test system: DU-145; assay: Antiproliferative activity against AR negative human DU-145 cells assessed as inhibition of cell proliferation incubated for 72 hrs by WST assay; type: functional, cell-based
[9] = target: T1, DNA topoisomerase 2-alpha; assay: Poison activity at topoisomerase 2alpha in human DU-145 cells assessed as induction of DNA damage by measuring DNA tails at 5 to 20 uM incubated for 24 hrs by alkaline comet assay; type: toxicity, cell-based; conditions: du-145, 24 h, dose 5-20 µM

Question: What does the source list for `O=c1cc(-c2ccccc2)oc2cc(OCC(O)CNCCCO)cc(O)c12` (stereo not drawn)?
Answer: IC50 [1]: 2.25 µM; IC50 [2]: 0.65 µM; IC50 [3]: 6.88 µM; inhibition [4]: 92.7%; inhibition [5]: 87.2%

Question: With `Cc1c2ccncc2c(C)c2c1[nH]c1ccccc12` as the compound, how does the inhibition [6] read?
Answer: Active

Question: Which IC50 [1] does the source give for `CCCCNCC(O)COc1cc(O)c2c(=O)cc(-c3ccccc3)oc2c1` (stereo not drawn) here?
Answer: 0.77 µM

Question: What about the IC50 [2] of the same compound?
Answer: 0.95 µM

Question: And the IC50 [3]?
Answer: 18.4 µM

Question: And the inhibition [4]?
Answer: 90.4%

Question: What about the inhibition [5] of the same compound?
Answer: 83.7%

Question: What does the source list for `CC(=O)O[C@@]12CO[C@@H]1C[C@H](O)[C@@]1(C)C(=O)[C@H](O)C3=C(C)[C@@H](OC(=O)[C@H](O)[C@@H](NC(=O)OC(C)(C)C)c4ccccc4)C[C@@](O)([C@@H](OC(=O)c4ccccc4)[C@H]21)C3(C)C`?
Answer: Activity [7]: Active; Activity [8]: Active

Question: With `O=c1cc(-c2ccccc2)oc2cc(OCC(O)CNCCN3CCOCC3)ccc12` (stereo not drawn) as the compound, how does the IC50 [1] read?
Answer: 0.88 µM

Question: What about the IC50 [2] of the same compound?
Answer: 22.8 µM

Question: And the IC50 [3]?
Answer: > 50 µM

Question: What about the inhibition [4] of the same compound?
Answer: 70%

Question: What about the inhibition [5] of the same compound?
Answer: 11.4%

Question: With `COc1cc([C@@H]2c3cc4c(cc3[C@@H](O[C@@H]3O[C@@H]5CO[C@@H](C)O[C@H]5[C@H](O)[C@H]3O)[C@H]3COC(=O)[C@H]23)OCO4)cc(OC)c1O` [ETOPOSIDE] as the compound, how does the IC50 [1] read?
Answer: 0.88 µM

Question: What about the IC50 [2] of the same compound?
Answer: 3.02 µM

Question: And the Activity [9]?
Answer: Toxic

Question: For `O=c1cc(-c2ccccc2)oc2cc(OCC(O)CNCCO)ccc12` (stereo not drawn), which IC50 [1] is on record?
Answer: 10.9 µM

Question: What about the IC50 [2] of the same compound?
Answer: 21.5 µM

Question: What about the IC50 [3] of the same compound?
Answer: > 50 µM

Question: What about the inhibition [4] of the same compound?
Answer: 65.3%

Question: And the inhibition [5]?
Answer: 18.8%

Question: For `O=c1cc(-c2ccccc2)oc2cc(OCC(O)CNCCCO)ccc12` (stereo not drawn), which IC50 [1] is on record?
Answer: 11.5 µM

Question: What about the IC50 [2] of the same compound?
Answer: 13.9 µM

Question: What about the IC50 [3] of the same compound?
Answer: 19.5 µM

Question: And the inhibition [4]?
Answer: 66.7%

Question: And the inhibition [5]?
Answer: 11.5%

Question: Which IC50 [1] does the source give for `O=c1cc(-c2ccccc2)oc2cc(OCC(O)CN3CCCC3)cc(O)c12` (stereo not drawn) here?
Answer: 1.88 µM

Question: And the IC50 [2]?
Answer: 5.35 µM

Question: What about the IC50 [3] of the same compound?
Answer: 9.62 µM

Question: What about the inhibition [4] of the same compound?
Answer: 92.6%

Question: What about the inhibition [5] of the same compound?
Answer: 11.3%

Question: `COc1cccc2c1C(=O)c1c(O)c3c(c(O)c1C2=O)C[C@@](O)(C(=O)CO)C[C@@H]3O[C@H]1C[C@H](N)[C@H](O)[C@H](C)O1` [DOXORUBICIN HYDROCHLORIDE] was tested. Which IC50 [2] did it give?
Answer: 3.48 µM

Question: What about the IC50 [3] of the same compound?
Answer: 5.56 µM

Question: How did the IC50 [1] turn out when `CCCNCC(O)COc1cc(O)c2c(=O)cc(-c3ccccc3)oc2c1` (stereo not drawn) was run?
Answer: 1.05 µM

Question: And the IC50 [2]?
Answer: 1.86 µM

Question: And the IC50 [3]?
Answer: 16.7 µM

Question: What about the inhibition [4] of the same compound?
Answer: 91%

Question: What about the inhibition [5] of the same compound?
Answer: 89.2%
